The record followed here is patent publication US8796321B2, “Compounds, compositions and methods comprising oxadiazole derivatives” (PATH Drug Solutions, priority 2008, dated 2014).

SMILES strings stand for the structures.

The experiment has as its system cholera toxin (CTX) induced net fluid secretion in intestinal loops. Further details: species or system mice (CD1 strain). Conditions: mouse, in vivo.
As for `CC(C)(C)C(=O)CN(Cc1cccc(C(F)(F)F)c1)C(=O)c1nc(-c2cc(Br)c(O)c(Br)c2)no1` [compound 1, 3-(3,5-dibromo-4-hydroxyphenyl)-N-(3,3-dimethyl-2-oxobutyl)-N-(3-(trifluoromethyl)benzyl)-1,2,4-oxadiazole-5-carboxamide], the “closed loop % inhibition @ 10 μg” value was determined as 69.4% and the “closed loop % inhibition @ 100 μg” value was 87.1%. Taken in the same sequence, the figures for `O=C(NCc1ccc(Oc2ccccc2)cc1)c1nc(-c2cc(Br)c(O)c(Br)c2)no1` [compound 13, 3-(3,5-dibromo-4-hydroxyphenyl)-N-(4-phenoxybenzyl)-1,2,4-oxadiazole-5-carboxamide] were 88.6% and 94.7%. For the compound `O=C(NCc1cccc(OC(F)(F)F)c1)c1noc(-c2cc(Br)c(O)c(Br)c2)n1` [compound 65, 5-(3,5-dibromo-4-hydroxyphenyl)-N-(3-(trifluoromethoxy)benzyl)-1,2,4-oxadiazole-3-carboxamide], the “closed loop % inhibition @ 100 μg” value came out at 94.6%. Same read-out and setting: next, `O=C(NCc1cc(F)cc(F)c1)c1noc(-c2cc(Cl)c(O)c(Cl)c2)n1` [compound 112, 5-(3,5-dichloro-4-hydroxyphenyl)-N-(3,5-difluorobenzyl)-1,2,4-oxadiazole-3-carboxamide]: 51%; `O=C(NCc1cccc(OC(F)(F)F)c1)c1noc(-c2cc(Cl)c(O)c(Cl)c2O)n1` [compound 120, 5-(3,5-dichloro-2,4-dihydroxyphenyl)-N-(3-(trifluoromethoxy)benzyl)-1,2,4-oxadiazole-3-carboxamide]: 62.3%.
